Measurements reported in PMC11093748, “De novo identification of CD4^+ T cell epitopes” (Nature Methods, 2024).
Values joined by “and” are separate entries in the source; they are usually repeats but may differ in a detail not shown here. Equal entries are not always repeated.

What was measured:
Assay in all cases: I-Ag7 SABR-II library screen, enrichment score
Type in all cases: cell-based, mouse
TCR13 = system: TCR13
Outline: (§1)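 Enrichment score: the difference between each epitope's sequenced abundance in sorted cells and its abundance predicted from triplicate unsorted-library reads by linear regression. Sorts took the top 1–2% GFP⁺CD69⁺ NFAT–GFP Jurkat reporters after co-culture of TCR⁺ Jurkats with the I-Ag7 SABR-II epitope library, three replicates per TCR.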

TCR35 = conditions: TCR_Mean minus PREDICTED_TCR (slope 0.982658, intercept 4.25575e-6 on LIB_Mean), TCR 35, run PZ101
Outline: as §1

TCR32 = conditions: TCR_Mean minus PREDICTED_TCR (slope 0.962506, intercept 9.20103e-6 on LIB_Mean), TCR 32, run PZ98
Outline: as §1

TCR10A = conditions: TCR_Mean minus PREDICTED_TCR (from LIB_Mean, SLOPE 0.950997, INTERCEPT 1.20253e-5), PZ47
Outline: as §1

TCR1 = conditions: sheet TCR1-PZ44; ES = TCRObserved - TCRPredicted; TCRPredicted = LIBObserved x SLOPE + INTERCEPT; SLOPE 0.917532, INTERCEPT 2.02377e-5
Outline: as §1

TCR5 = system: TCR5
Outline: as §1

TCR8 = conditions: TCR_Mean minus PREDICTED_TCR (from LIB_Mean, SLOPE 0.946603, INTERCEPT 1.31036e-5), PZ47
Outline: as §1

TCR9 = conditions: TCR_Mean minus PREDICTED_TCR (from LIB_Mean, SLOPE 0.950453, INTERCEPT 1.21587e-5), PZ47
Outline: as §1

TCR17A = conditions: TCR_Mean minus PREDICTED_TCR (from LIB_Mean, SLOPE 0.925966, INTERCEPT 1.81678e-5), PZ52
Outline: as §1

TCR29 = conditions: TCR_Mean minus PREDICTED_TCR (slope 0.951614, intercept 1.18738e-5 on LIB_Mean), TCR 29, run PZ98
Outline: as §1

TCR17B = conditions: TCR_Mean minus PREDICTED_TCR (from LIB_Mean, SLOPE 0.911347, INTERCEPT 2.17553e-5), PZ52
Outline: as §1

TCR21A = conditions: TCR_Mean minus PREDICTED_TCR (slope 0.957287, intercept 1.04818e-5 on LIB_Mean), TCR 21A, run PZ56
Outline: as §1

TCR21B = conditions: TCR_Mean minus PREDICTED_TCR (slope 0.954708, intercept 1.11146e-5 on LIB_Mean), TCR 21B, run PZ56
Outline: as §1

TCR7 = system: TCR7
Outline: as §1

[1] = I-Ag7 library, one biological experiment
[2] = TCR13, TCR_Mean minus PREDICTED_TCR (from LIB_Mean, SLOPE 0.90397, INTERCEPT 2.35655e-5), PZ51
[3] = sheet TCR5-PZ44, ES = TCRObserved - TCRPredicted, TCRPredicted = LIBObserved x SLOPE + INTERCEPT, SLOPE 0.90726, INTERCEPT 2.27584e-5
[4] = sheet TCR7-PZ47, ES = TCRObserved - TCRPredicted, TCRPredicted = LIBObserved x SLOPE + INTERCEPT, SLOPE 0.961246, INTERCEPT 9.5102e-6

Sequence | Enrichment score (TCR13; [1]) | Enrichment score (TCR13; [2]) | Enrichment score (TCR35) | Enrichment score (TCR32) | Enrichment score (TCR10A) | Enrichment score (TCR1) | Enrichment score (TCR5; [1]) | Enrichment score (TCR5; [3]) | Enrichment score (TCR8) | Enrichment score (TCR9) | Enrichment score (TCR17A) | Enrichment score (TCR29) | Enrichment score (TCR17B) | Enrichment score (TCR21A) | Enrichment score (TCR21B) | Enrichment score (TCR7; [1]) | Enrichment score (TCR7; [4])
AAVEEGIVAGGGVTLL | 0.0001546 | 0.0001546 | -8.894e-5 | 3.811e-5 | 0.0001778 | 0.0002622 | 2.521e-5 and 3.881e-5 | 2.521e-5 | -2.679e-5 | -0.0001033 | -0.0001329 | -4.805e-5 | -0.0001643 | 7.745e-5 | -9.242e-5 | 1.142e-5 | 1.142e-5
AEKVRNLPAGHGLNAQ | 0.000137 | 0.000137 | -0.0001779 | 4.971e-5 | -7.319e-5 | 9.239e-5 |  | 1.968e-5 | -5.38e-5 | 2.252e-5 | -0.0001276 | -9.799e-5 | -3.983e-5 | 0.0001683 | 8.732e-6 | 5.397e-5 | 5.397e-5
AGGVAVIKAGAATEV | 0.0001675 | 0.0001675 | 7.19e-5 | 9.791e-5 | -2.727e-5 | 3.28e-9 |  | -1.203e-5 | -5.809e-5 | -1.065e-5 | -5.895e-5 | -4.862e-5 | 5.455e-5 | 3.881e-5 | -9.6548e-5 | -2.964e-5 | -2.964e-5
AKAAVEEGIVAGGGV | 0.0001008 | 0.0001008 | -4.28e-5 | -4.13e-5 | -4.524e-5 | -8.988e-5 |  | 4.678e-5 | 4.499e-5 | 0.0002844 | 7.661e-5 | -1.352e-5 | 0.0004148 | -4.928e-5 | -2.11e-5 | 0.0001251 | 0.0001251
ALVREGLRNVAAGANP | -2.357e-5 | -2.357e-5 | -4.256e-6 | -9.201e-6 | -1.221e-5 | -2.024e-5 |  | -2.1402e-5 | -1.329e-5 | -9.186e-6 | -1.826e-5 | -1.187e-5 | -2.185e-5 | -1.111e-5 | -1.174e-5 | -9.699e-6 | -9.699e-6
